The values below come from patent publication US8013006B2.

Where two headings read alike, the source gives them in different places. Where only a bound is given, the exact number is not on record here.

The test system of one data set is HCV replicon. The data set can be described thus: microbe, parasite or virus in culture. The format is cell-based.
The mark [1] stands for this setting: Hepatitis C virus, 48 h, read-out: Replicon IC5Os μM.
Setting [2] is: bicistronic HCV replicon, determined by firefly luciferase signal, cells cultured with compound for 2 days, read-out: Replicon IC5Os.

Turning to `CCOc1ccc2c(C#N)c(-c3ccc(N(C)S(C)(=O)=O)cc3)n(C)c2c1`, the melting point lay in the range of 203 to 205 °C. `CCCOC(=O)Nc1ccc(-c2c(C#N)c3ccc(OC(F)F)cc3n2CC2CC2)cc1` gave a melting point of 125 to 126 °C. `CCn1c(-c2ccc(NC(=O)COC)cc2)c(C#N)c2ccc(OC(C)C)cc21` returned a melting point of 169 to 173 °C.

In the case of `CCn1c(-c2ccc3c(c2)OCO3)c(C#N)c2ccc(OC)cc21` [Compound 22], the melting point is 146 to 149 °C. Besides, the IC50 in the data set on HCV replicon (setting [1]) fell in the range of 0.5 to 2 µM.

`CCn1c(NC(=O)c2cccc(C)c2)c(C#N)c2ccc(OC)cc21` [Compound 23] came in with a melting point of 234 to 235 °C. In addition, the IC50 in the data set on HCV replicon (setting [1]) was under 0.5 µM.

As for `CCn1c(NC(C)=O)c(C#N)c2ccc([N+](=O)[O-])cc21` [Compound 25, N-(3-cyano-1-ethyl-6-nitro-1H-indol-2-yl)acetamide], the melting point is 291 to 293 °C. Also, in the data set with HCV replicon (setting [1]), the IC50 was over 2 µM. The like results for `COc1ccc(-n2cc(C(C)=O)c3ccc(OC)cc32)cc1` [Compound 48] were, in that order, 138 to 142 °C and 0.5 to 2 µM. Turning to `CCn1c(C#Cc2ccc(N)cc2)c(C#N)c2ccc(OC)cc21` [Compound 69], the melting point was in the range of 163 to 166 °C. The IC50 with HCV replicon (setting [1]) lay within 0.5 to 2 µM. For `CCn1c(-c2ccc(NC(=O)C3CC3)cc2)c(C#N)c2ccc(OC)cc21` [Compound 81] the same measures were 209 to 211 °C and under 0.5 µM. For `CCC(=O)Nc1ccc(C#Cc2c(C#N)c3ccc(OC)cc3n2CC)cc1` [Compound 82] the same measures were 223 to 228 °C and 0.5 to 2 µM. Consider `CCCn1c(-c2ccc(NS(=O)(=O)CC)cc2)c(C#N)c2ccc(OC)cc21` [Compound 85], for which the melting point was 163 to 165 °C. In addition, the IC50 in the data set on HCV replicon (setting [1]) was under 0.5 µM. Consider `CCS(=O)(=O)Nc1ccc(-c2c(C#N)c3ccc(OC)cc3n2C2CCC2)cc1` [Compound 86], for which the melting point is 158 to 160 °C. Further, the IC50 with HCV replicon (setting [1]) is under 0.5 µM. As for `CCn1c(C#Cc2ccc(CNS(=O)(=O)CC)cc2)c(C#N)c2ccc(OC)cc21` [Compound 157, Ethanesulfonic acid [4-(3-cyano-1-ethyl-6-methoxy-1H-indol-2-ylethynyl)-phenyl]methyl amide], the melting point was in the range of 149 to 153 °C. On the same count and under the same terms, with `CCn1c(-c2ccc(CNS(=O)(=O)CCN3CCOCC3)cc2)c(C#N)c2ccc(OC)cc21` [Compound 668, 2-morpholin-4-yl-ethanesulfonic acid [4-(3-cyano-1-ethyl-6-methoxy-1H-indol-2-yl)-phenyl]methyl amide] the figure was 171 to 174 °C.

As to `CCn1c(-c2ccc(NC(=O)C(C)C)cc2)c(C#N)c2ccccc21` [Compound 855], the IC50 with HCV replicon (setting [1]) was 0.5 to 2 µM. Turning to `CCn1c(-c2ccc(NC(=O)CCl)cc2)c(C#N)c2cc(OC)ccc21` [Compound 856], the IC50 in the data set with HCV replicon (setting [2]) was over 2 µM. Still for that read-out and setting: the value for `CCn1c(-c2ccc(NC(=O)COC)cc2)c(C#N)c2cc(OC)ccc21` [Compound 857] was 0.5 to 2 µM.

For the molecule `CCn1c(-c2ccc(NC(=O)C(C)C)cc2)c(C#N)c2cc(OC)ccc21` [Compound 858], the IC50 in the data set with HCV replicon (setting [1]) is under 0.5 µM. For `CCn1c(-c2ccc(C(=O)NC)cc2)c(C#N)c2cc(OC)ccc21` [Compound 860], in the data set with HCV replicon (setting [2]), the IC50 lay in the range of 0.5 to 2 µM.

For `CCn1c(-c2ccc(C(=O)N3CC3)cc2)c(C#N)c2cc(OC)ccc21` [Compound 861], in the data set with HCV replicon (setting [1]), the IC50 is 0.5 to 2 µM.

Consider `CCn1c(-c2ccc(C(=O)N3CCC3)cc2)c(C#N)c2cc(OC)ccc21` [Compound 862], for which the IC50 in the data set with HCV replicon (setting [2]) is over 2 µM.

Consider `CCn1c(-c2ccc(N3CCOC3=O)cc2)c(C#N)c2ccc(OC)cc21` [Compound 863], for which the IC50 with HCV replicon (setting [1]) was in the range of 0.5 to 2 µM. Turning to `CCn1c(-c2cccc(N3CCOC3=O)c2)c(C#N)c2ccc(OC)cc21` [Compound 864], the IC50 in the data set with HCV replicon (setting [2]) is 0.5 to 2 µM. The same measure, in the same setting: with `CCCn1c(-c2ccc(N3CCCS3(=O)=O)cc2)c(C=O)c2ccc(OC)cc21` [Compound 865] the figure was over 2 µM.

As a reminder, the melting point is the temperature of the solid-liquid transition.
